Assays:
[1] = test system: Acinetobacter baumannii ATCC BAA-747; test: In vitro bactericidal assay, A. baumannii ATCC BAA-747 (FIGS. 10-11); assay type: cell-based; details: for reduction of CFU/ml: highest peptide concentration
Procedure: (§1) Each of the test peptides was used at 25, 12.5 6.25 and 3.12 μM. The gentamicin was used at 4 μg/ml. 1×10^6/ml Acinetobacter baumannii ATCC® BAA-747™ (American Type Culture Collection, Manassas, Va.) were incubated with the peptides, negative buffer control (tryptone saline), and positive control gentamicin for 60 minutes at pH 5.5. 50 μl aliquots were plated out on agar plates and incubated overnight. Colony forming units were counted after overnight incubation and CFU/ml calculated.
as §1, with “7.2.” for “5.5.”
For FIGS. 10-13, in vitro bactericidal assays were performed using a starting inoculum of 1×10^6 CFU/ml of the bacterial suspension. The CFU remaining at the end of the 60-180 minute incubation was determined, and the data was plotted as log reduction in CFU/ml.
In particular, each of the test peptides (CAP37 peptides 120-146WR, 120-146WH, and 95-122 (SEQ ID NOS:30, 31, and 26, respectively)) was used at 25, 12.5, 6.25, and 3.12 μM. Gentamicin was used at 4 μg/ml. 1×10^6/ml Acinetobacter baumannii ATCC® BAA-747™ or Pseudomonas aeruginosa ATCC® 27853™ (American Type Culture Collection, Manassas, Va.) were incubated with the peptides, negative buffer control (tryptone saline), and positive control gentamicin at pH 5.5 or 7.2. A 60 minute incubation was used for Acinetobacter baumannii ATCC® BAA-747™, while a 180 minute incubation was used for Pseudomonas aeruginosa ATCC® 27853™. 50 μl aliquots were plated out on agar plates and incubated overnight. Colony forming units were counted after overnight incubation and CFU/ml calculated.

[2] = test system: mouse corneal epithelium abrasion; test: In vivo model of corneal wound healing
Procedure: (§2) The mouse corneal epithelium was removed using the AlgerBrush II (The Alger Company, Inc., Lago Vista, Tex.), and corneal abrasions were treated at 0 hours and 16 hours with peptide 95-122 (10^−5 M), or were left untreated in 0.9% sodium chloride (saline vehicle) Wound healing was monitored at 0, 16, and 24 hours using fluorescein staining and a camera-equipped inverted microscope. Data are represented as the percentage of wound closure at 16 hours and 24 hours and are expressed as means±SEM. The data are representative of at least 6 mice per group. *P<0.05 by unpaired t-test as compared to vehicle (0.9% sodium chloride) treated controls.
as §2, with “II,” for “II (The Alger Company, Inc., Lago Vista, Tex.),”, “0” for “0 hours”, “120-146WH (10^−8 M or 10^−6” for “95-122 (10^−5”, “vehicle control).” for “vehicle)”, “group. ***P<0.001,” for “group.”
(A) The epithelium of the mouse cornea was removed using the AlgerBrush II, and corneal abrasions were treated at 0 and 16 hours with HB-EGF (250 ng/ml), rCAP37 (250 ng/ml), or vehicle control (normal saline). Wound closure was monitored at 0, 16, 24, and 48 hours using fluorescein staining and a camera-equipped inverted microscope. Data are represented as the percentage of wound closure and are expressed as mean±SEM. The data are representative of at least 6 mice per group. The percentage of wound closure in response to treatment was compared to vehicle-treated controls by unpaired t-test, **P<0.01, *P<0.05. (B) Representative images of mouse corneal wounds are shown at 0, 16, 24, and 48 hours following treatment with vehicle, HB-EGF, and CAP37. Black dotted lines indicate the wound edge.
In vivo model of corneal wound healing: The in vivo model of wound healing was carried out using a disposable biopsy punch (2 mm, Miltex, York, Pa.) to demarcate the mouse cornea and a 0.5 mm burr using the AlgerBrush II (The Alger Company, Inc., Lago Vista, Tex.) to remove the corneal epithelium.
In vivo model of wound healing: Mice were anesthetized using ketamine (100 mg/kg; Bionichepharma, LLC., St. Lake Forrest, Ill.) and xylazine ([…]; Rompun; Bayer Corp., Shawnee Mission, Kans.), and the right cornea was wounded as follows. A disposable biopsy punch (2 mm, Miltex, York, Pa.) was used to demarcate the mouse cornea. The corneal epithelium was carefully removed within the 2 mm demarcated area with a 0.5 mm burr using the AlgerBrush II (The Alger Company, Inc., Lago Vista, Tex.). The corneal abrasions were treated at 0 and 16 hours with HB-EGF (250 ng/ml), rCAP37 (250 ng/ml), or vehicle control (0.9% sodium chloride, pH 5.5, Baxter, Deerfield, Ill.). Corneal abrasions were visualized using sterile fluorescein sodium ophthalmic strips USP (FLUORETS®, Chauvin Laboratory, Aubenas, France) dampened with sterile PBS. […] The areas of the open wound were quantitated using ImageJ software (US National Institutes of Health), and the results were reported as the percentage of wound closure.

Molecule: GTRCQVAGWGSWHSGGRLSRFPRFVNV (derivative of peptide of CAP37 protein) [Peptide 120-146WH]
- reduction of CFU/ml ([1]; pH 5.5, 60 minutes): ~4 logs
- reduction of CFU/ml ([1]; pH 7.2, 60 minutes): ~5.5 logs
- bactericidal activity, in words ([1]; peptide at 25 μM): highly active
- amount of corneal wound healing vs vehicle, in words ([2]; peptide 10^−8 M or 10^−6 M at 0 and 16 hours, read at 16 and 24 hours): significantly greater

Molecule: GTRCQVAGWGSWRSGGRLSRFPRFVNV (derivative of peptide of Homo sapiens CAP37 protein) [Peptide 120-146WR]
- reduction of CFU/ml ([1]; pH 5.5, 60 minutes): ~4 logs
- reduction of CFU/ml ([1]; pH 7.2, 60 minutes): ~5.5 logs
- bactericidal activity, in words ([1]; peptide at 12.5 μM): highly active
- bactericidal activity, in words ([1]; peptide at 25 μM): highly active

Molecule: LDREANLTSSVTILPLPLQNATVEAGTR (listed as Homo sapiens) [Peptide 95-122]
- bactericidal activity, in words ([1]; pH 5.5, 60 minutes, peptides 3.12-25 μM, gentamicin 4 μg/ml): not active
- bactericidal activity, in words ([1]; pH 7.2, 60 minutes, peptides 3.12-25 μM, gentamicin 4 μg/ml): not active
- corneal wound closure, in words ([2]; peptide 10^−5 M at 0 and 16 hours, read at 16 and 24 hours): promotes corneal wound healing in vivo

B1: CAP37: cationic antimicrobial protein of Mr 37 kDa; recombinant CAP37 produced in human embryonic kidney (HEK) 293 cells (protein)
chain: IVGGRKARPRQFPFLASIQNQGRHFCGGALIHARFVMTAASCFQSQNPGVSTVVLGAYDLRRRERQSRQTFSISSMSENGYDPQQNLNDLMLLQLDREANLTSSVTILPLPLQNATVEAGTRCQVAGWGSQRSGGRLSRFPRFVNVTVTPEDQCRPNNVCTGVLTRRGGICNGDGGTPLVCEGLAHGVASFSLGPCGRGPDFFTRVALFRDWIDGVLNNPGP
- reduction of corneal wound size ([2]; CAP37 250 ng/ml at 0 and 16 hours, at 16 hours): 71%
- corneal wound closure ([2]; CAP37 250 ng/ml at 0 and 16 hours, by 24 hours): 83%
